This note sets out measurements from paper PMC10257291, “Biological activities of extracts and compounds from Thai Kae-Lae (Maclura cochinchinensis (Lour.) Corner)” (BMC Complementary Medicine and Therapies, 2023).

In this experiment the test system is TNF-α. Kind of experiment: TNF-α secretion in LPS-stimulated RAW 264.7 cells (ELISA). The format is cell-based, mouse. To be noted: sample at IC20 value; vs dexamethasone 1 μg/mL; LPS 1 μg/mL. The source says:
Mouse monocyte macrophage RAW 264.7 cells (American Type Culture Collection, […]-71) were stimulated with lipopolysaccharide (LPS) or phytohemagglutinin (PHA). The LPS treated RAW 264.7 cells served as a vehicle control, of which the NO production, and the secreted cytokines were defined as 100%, whereas a negative control was non-treated RAW 264.7 cells. Dexamethasone (an anti-inflammatory drug) was used as a positive control. PBMCs (1 × 10^5 cells/well in RPMI-1640 for IL-2) and Raw cells (1 × 10^5 cells/well in DMEM for TNF-α) were seeded for 24 h in a CO2 incubator set at 37 °C and 5% CO2/95% humidified air. Then cells were treated with […] fractional extracts (IC20 value) or pure compounds (IC20 value), or dexamethasone (1 μg/mL) were added. […] After 24 h, the media were removed and centrifuged at 13,500 × g for 10 min and 100 μL of the supernatant was analysed by the protocol of R&D Systems, Minneapolis, MN, USA using ELISA technique. The absorbance was measured at 450 nm and corrected with the reference wavelength of 570 nm (Beckman CoulterDTX880, Fullerton, CA, USA). Viability of PBMCs and RAW 264.7 cells was also determined using MTT assay as described previously. IL-2 and TNF-α secretion inhibitions were calculated as bellow:4 %Cytokineinhibition=A-B/A×100 A is the optical density of the mixture without the sample, while B is the optical density of the mixture with the sample. […]
Background: ELISA stands for enzyme-linked immunosorbent assay.

SMILES strings stand for the structures.

With `O=c1c(O)c(-c2ccc(O)c(O)c2)oc2cc(O)cc(O)c12` [Quercetin, quercetin], the TNF-α inhibition result was “significantly more potent inhibition of IL-2, TNF-α, and NO than dexamethasone”.
